# In US20060293264A1, “STAT3 decoy oligonucleotides and uses therefor” (priority 2004, published 2006):
# Entries after “also recorded” stand apart in the source; their conditions may differ.
# Experiments:
# [1] = test system: STAT5; assay: STAT5 activation by EMSA in harvested xenografts; format: in vivo; conditions: xenografts after 25 treatments; specificity
# [2] = test system: SCCHN xenografts (1483 cells); assay: In vivo tumor xenograft study, tumor volumes; set-up: species or system athymic nude mice; conditions: 25 μg intratumoral daily, 1483 xenografts, nude mice; p=0.002
# Description: Statistics. In vivo comparisons of STAT3, cyclin D1 and Bcl-xL expression levels were conducted with the Wilcoxon test for comparing two groups or the Kruskal-Wallis test for comparing three groups. All tests were exact and two-tailed. Studies of the joint effect of STAT3 decoy and cisplatin upon in vitro apoptosis were evaluated with a two way factorial design. Additive and synergistic effects of the STAT3 decoy and cisplatin were tested with a permutation test. In vivo tumor xenograft experiments were analyzed with mixed linear models that assumed animals were random effects having an unstructured within-animal covariance matrix. Data were log transformed and examined for the interaction between treatment group and day of observation beginning with day 10 after tumor inoculation, differences between treatment groups were estimated and tested with the pooled estimated standard error. Multiple comparisons were controlled by simulating observations from a multivariate t distribution with the same covariance matrix as the observed data and adjusting p values accordingly.
# (§1) In vivo tumor xenograft studies. Female athymic nude mice nu/nu (4-6 weeks old; 20±2 g; Harlan-Sprague-Dawley) were implanted with 1×10^6 1483 cells into the right and left flank with a 26-gauge needle/1 ml tuberculin syringe, resulting in two tumors per mouse. […]
# [3] = test system: p53-responsive element; assay: p53-Luciferase reporter gene assay in UM-22B SCCHN cells; format: cell-based; conditions: UM-22B p53-Luc, 2 μg transfected, 24 hrs
# Description: FIG. 8 depicts the inhibition of reporter gene expression from a p53-responsive element in SCCHN cells. An SCCHN cell line, UM-22B, was used to generate a stable cell line expressing a p53-Luciferase (p53-Luc) reporter gene (The p53-Luc plasmid carrying 14 repeats of p53 transcription recognition sequence: 5'-[…] ID NO: 30)), was obtained from Stratagene, Catalog number: 219085-51). The cells were transfected with 2 μg of the STAT3 decoy or the control mutant decoy. At 24 hrs after transfection, luciferase (Luc) activity was measured and normalized to the total amount of protein according to standard methods.
# [4] = test system: head and neck squamous cell carcinoma; conditions: dose-dependent; Leong et al. 2003; cited from earlier work
# [5] = biological target: T1, STAT3 (Homo sapiens, UniProt P40763); assay: STAT3 activation by EMSA in harvested xenografts; format: in vivo; conditions: xenografts harvested 4 hrs after last treatment; p=0.02
# T1 construct: Whole cell extracts were prepared and EMSAs performed on 4% native polyacrylamide gels; endogenous in cells; host or cells: whole cell extracts
# T1 sequence (P40763 2-770 limits assumed): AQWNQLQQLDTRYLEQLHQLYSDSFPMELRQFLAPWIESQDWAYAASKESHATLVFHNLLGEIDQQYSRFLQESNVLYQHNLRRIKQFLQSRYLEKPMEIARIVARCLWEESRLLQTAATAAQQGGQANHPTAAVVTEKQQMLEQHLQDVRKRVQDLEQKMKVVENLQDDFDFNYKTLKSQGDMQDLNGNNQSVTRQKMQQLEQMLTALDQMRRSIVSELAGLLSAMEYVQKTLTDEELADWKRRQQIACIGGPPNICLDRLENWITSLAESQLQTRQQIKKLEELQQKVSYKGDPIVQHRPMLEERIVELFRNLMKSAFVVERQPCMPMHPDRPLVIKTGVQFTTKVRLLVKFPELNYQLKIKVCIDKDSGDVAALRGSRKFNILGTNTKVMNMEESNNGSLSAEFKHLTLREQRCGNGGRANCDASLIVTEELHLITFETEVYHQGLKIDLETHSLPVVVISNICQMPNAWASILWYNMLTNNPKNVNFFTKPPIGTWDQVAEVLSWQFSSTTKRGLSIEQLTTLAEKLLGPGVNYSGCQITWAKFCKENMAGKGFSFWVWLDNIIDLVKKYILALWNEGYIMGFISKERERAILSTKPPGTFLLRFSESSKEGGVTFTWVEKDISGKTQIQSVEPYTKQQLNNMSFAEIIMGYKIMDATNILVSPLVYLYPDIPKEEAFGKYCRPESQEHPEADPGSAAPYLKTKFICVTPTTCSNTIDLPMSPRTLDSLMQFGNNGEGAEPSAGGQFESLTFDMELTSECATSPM
# Description: Electrophoretic Mobility Shift Assay (EMSA). Whole cell extracts were prepared and EMSAs performed on 4% native polyacrylamide gels as described (Xi, S., et al. J Biol Chem, 278: 31574-31583, 2003 and Wong, P., etal. Mol Cell Biol, 14. 914-922, 1994). STAT3 activation was evaluated by using binding reactions with 20 μg of extracted protein, and radiolabeled high-affinity serum inducible element (hSIE) duplex oligonucleotide (Wagner et al., EMBO J. 9(13):4477-4484 (1990)). Quantification of the STAT3 signal was performed by scanning the SIF-A band using a Molecular Dynamics Personal Densitometer SI and IMAGEQUANT software. […] For supershift experiments, extracts were preincubated with STAT3 polyclonal antibody (C-20, Santa Cruz Biotechnology). Gel shift bands were quantified by densitometry and the Molecular Analyst software (AlphaDigidoc 1000, Alpha-Innotech) with normalization of each band to the positive control lysate run on that gel as described previously for STAT3 activation determinations (Grandis, J. R. et al. Proc Natl Acad Sci USA, 97: 4227-4232., 2000).
# as §1
# [6] = test system: Egr-1 transcription recognition sequence; assay: pEgr-1-Luc reporter assay in SCCHN cells; format: cell-based; conditions: SCCHN cells co-transfected with 2 μg pEgr-1-Luc and 2 μg decoy, 24 hrs
# Description: STAT3 decoy-specific transcriptional repression of Egr-1(Early Growth Response -1 enhancer, pEGR-1-Luc, Stratagene Cat. No. 240130, containing three repeats of the Egr-1 transcription recognition sequence: 5′-GGGTGGGGN-3′ (SEQ ID NO: 31) was also observed. SCCHN cells were co-transfected with 2 μg pEgr-1-Luc plasmid and 2 μg of the STAT3 decoy or the control mutant decoy. At 24 hrs after transfection, luciferase activity was measured and normalized to the total amount of protein according to standard methods.
substance,measurement,setting,value
"STAT3 decoy (sense CATTTCCCGTAAATC; antisense GATTTACGGGAAATG; phosphorothioate modified, further chemistry not given here; listed as Homo sapiens)",STAT5 activation,[1],no abrogation
same,tumor growth (tumor volumes) compared with mutant control decoy,[2],significantly decreased; also recorded: growth inhibited
same,p53 reporter activity,[3],specifically interfere
same,head and neck squamous cell carcinoma growth in vitro,[4],abrogate
same,STAT3 activation levels compared with mutant control decoy,[5],decreased
same,transcriptional repression of Egr-1 enhancer reporter,[6],observed
